# Measurements as given in patent US4354033A, “Anthranilic acid esters” (Council of Scientific & Industrial Research, priority 1981, dated 1982).
# What was measured:
# [1] = test system: capillary permeability; conditions: at 100 mg
# [2] = LD50 i.p. in mice; conditions: mouse, in vivo, ip
# [3] = Ulcerogenic properties; assay type: in vivo; conditions: 100 mg/kg daily orally for 7 days
# [4] = test system: formaldehyde induced arthritis; assay: Formaldehyde arthritis; assay type: in vivo; conditions: 100 mg/kg orally daily for 10 days
# [5] = test system: cotton pellet granuloma; assay: Cotton pellet granuloma; assay type: in vivo; conditions: 100 mg/kg orally daily for 7 days
# [6] = Anti-inflammatory activity in a battery of tests (summary statement); assay type: in vivo
# [7] = test system: carrageenin oedema; assay: Antiinflammatory action (rats), carrageenin oedema; assay type: in vivo; conditions: for inhibition of carrageenin oedema: 200 mg/kg (p.o.); for inhibition (carrageenin): rats, 100 mg/kg p.o.
# Experimental: Antiinflammatory action (Rats): Dose: 100 mg/kg p.o.
# (ii) It produces 30% inhibition when given 1/2 hour before the injection of carrageenin.
# Effect on carrageenin oedema at 200 mg/kg (p.o.)
# (i) 60% inhibition when given 1 hour before the injection of carrageenin.
# (iii) 62% of inhibition when given 1/2 hour after the injection of carrageenin.
# Antiinflammatory action (Rats)
# Effect on carrageenin oedema at 200 mg/kg
# [8] = 1/2 hour after injection of carrageenin
# [9] = 1/2 hour before injection of carrageenin
smiles,measurement,setting,value
"O=C(COC(=O)c1ccccc1NCCc1ccccc1)c1ccccc1 [2-N-β-phenethyl phenacyl anthranilate, 2-N-β-phenethyl-phenacyl anthranilate]",inhibition (mouse capillary permeability),[1],52%
same,LD50,[2],> 800 mg/kg
same,ulcerogenic activity,[3],does not show any ulcerogenic activity
same,inhibition of formaldehyde induced arthritis,[4],14%
same,inhibition of cotton pellet granuloma,[5],31%
same,anti-inflammatory activity,[6],potent anti-inflammatory activity
same,inhibition of carrageenin oedema,[7]; [8],62%
same,inhibition of carrageenin oedema,[7]; [9],43%
same,inhibition of carrageenin oedema,[7]; 1 hour before injection of carrageenin,60%
same,inhibition (carrageenin),[7]; [8],43%
same,inhibition (carrageenin),[7]; [9],30%
same,inhibition (carrageenin),[7]; one hour before injection of carrageenin,44.5%
